Measurements as given in US20070009529A1, “Agents that dissolve arterial thrombi” (New York University, priority 2002, published 2007).
Like-named read-outs stand apart in the source and are kept apart here. *: point of attachment. Biotin = O=C1N[C@H]2[C@H](CS[C@H]2CCCCC(=O)*)N1

Key:
platelets [1] = assay: Effect of inhibitors on anti-GPIIIa49-66 Ab-induced platelet particle formation / oxidative fragmentation; type: cell-based, human; design: effect on Ab-induced platelet particle formation: unit of the concentration uncertain
Procedure: Induction of Platelet Particles. […] 1×10^7 gel-filtered platelets/ml were labelled with an anti-GPIIb-FITC monoclonal Ab (MoAb) (3B2) or an anti-GPIIIa-FITC MoAb (Ancell, Bayport, Minn.), 10 ug/ml for 30 min at 4° C., centrifuged at 1000 g×6 min at room temperature, and resuspended in Tyrodes buffer. […] (see below).
Debris and dead cells were excluded using scatter gates. Only cells with low orthogonal light scattering were included in the sorting gates. Gates were adjusted for control platelets by exclusion of other blood cells. Intact platelets were monitored in the right upper quadrant (RUQ) with the Y-axis measuring forward-scatter and the X-axis measuring fluorescence. A shift in the fluorescent particles from RUQ to LUQ reflected % platelet particle induction of 10,000 counted platelets/particles.
However, a recent report by Lerner and coworkers [19]provided evidence that Ab's in general are capable of inducing peroxide formation from an assortment of Ag's depending upon the tryptophan and cysteine composition and orientation. […] This hypothesis was tested with the use of diphenyleneiodonium (DPI), an inhibitor of NADH/NADPH oxidase, as well as other flavoprotein oxidases.

platelets [2] = assay: Platelet oxidation/fragmentation induced independently of anti-GPIIIa49-66 (DCHF-loaded platelets); type: cell-based
[3] = inhibitor at 2 (unit uncertain)

Compound: CN[C@@H]1C[C@H]2O[C@@](C)([C@@H]1OC)n1c3ccccc3c3c4c(c5c6ccccc6n2c5c31)C(=O)NC4 [staurosporine]
- effect on Ab-induced platelet particle formation (platelets [1]; inhibitor at 200 uM): unsuccessful

Compound: CCCCC[C@H](O)/C=C/[C@H]1[C@H](O)CC(=O)[C@@H]1CCCCCCC(=O)O [PGE1]
- oxidative fragmentation/death in the presence of the agent (platelets [1]; agent at 1 μM, n=6): not induced

Compound: superoxide dismutase
- effect on Ab-induced platelet particle formation (platelets [1]; 4 Hrs, doubling concentrations from 50 uM/ml catalase and 5 uM/ml DPI, no UV/light irradiation): inhibited

Compound: COC(=O)CC(NC(=O)OC(C)(C)C)C(=O)CF (centres unmarked) [FK-011]
- effect on Ab-induced platelet particle formation (platelets [1]; inhibitor at 100 uM): unsuccessful

Compound: Oc1ncnc2[nH]ncc12 [allopurinol]
- effect on Ab-induced platelet particle formation (platelets [1]; inhibitor at 200 uM): failed to inhibit

Compound: CC[C@]1(O)C[C@@H]2CN(CCc3c([nH]c4ccccc34)[C@@](C(=O)OC)(c3cc4c(cc3OC)N(C)[C@H]3[C@@](O)(C(=O)OC)[C@H](OC(C)=O)[C@]5(CC)C=CCN6CC[C@]43[C@@H]65)C2)C1 [vinblastine]
- effect on Ab-induced platelet particle formation (platelets [1]; inhibitor at 0.2 (unit uncertain)): unsuccessful

Compound: CC(=O)N[C@@H](CC(C)C)C(=O)N[C@@H](CC(C)C)C(=O)N[C@H](C=O)CCCNC(=N)N [leupeptin]
- effect on Ab-induced platelet particle formation (platelets [1]; inhibitor at 5 ug/ml): unsuccessful

Compound: calpastatin
- effect on Ab-induced platelet particle formation (platelets [1]; inhibitor at 100 uM): unsuccessful

Compound: COc1cc2c(c(OC)c1OC)-c1ccc(OC)c(=O)cc1[C@@H](NC(C)=O)CC2 [Colchicine]
- effect on Ab-induced platelet particle formation (platelets [1]; [3]): unsuccessful

Compound: CC1CNCCN1S(=O)(=O)c1cccc2cnccc12 (centres unmarked) [H-7]
- effect on Ab-induced platelet particle formation (platelets [1]; inhibitor at 40 uM): unsuccessful

Compound: C=C1[C@@H](C)[C@H]2[C@H](Cc3ccccc3)NC(=O)[C@]23[C@H](OC(C)=O)/C=C/[C@@](C)(O)C(=O)[C@@H](C)C/C=C/[C@H]3[C@@H]1O [cytochalasin D]
- effect on Ab-induced platelet particle formation (platelets [1]; inhibitor at 10 uM): unsuccessful

Compound: bio-VQTRSVHCVQQGRPSSSC—OH (Biotin-VQTRSVHCVQQGRPSSSC-OH; cysteine pairing not given here) [18-mer peptide from the C-terminal TSP motif of ADAMTS-18, conjugated to biotin]
- platelet oxidation/fragmentation (platelets [2]; peptide alone): no effect
- platelet oxidation/fragmentation (platelets [2]; peptide clustered with an anti-biotin antibody, n=6): did induce oxidation/fragmentation

Compound: COc1ccc2c(c1)c(CC(=O)O)c(C)n2C(=O)c1ccc(Cl)cc1 [indomethacin]
- effect on Ab-induced platelet particle formation (platelets [1]; inhibitor at 20 uM): failed to inhibit

Compound: O=S(=O)(F)Cc1ccccc1 [PMSF]
- effect on Ab-induced platelet particle formation (platelets [1]; [3]): unsuccessful

Compound: [N-]=[N+]=[N-].[Na+] [NaAz]
- effect on Ab-induced platelet particle formation (platelets [1]): unsuccessful

Compound: O=CC[C@@H](O)[C@H](O)[C@H](O)CO [2-deoxyglucose]
- effect on Ab-induced platelet particle formation (platelets [1]; inhibitor at 3 (unit uncertain)): unsuccessful
